Drawing on patent publication US8741806B2, “Herbicides” (Syngenta Limited, priority 2009, dated 2014), this text covers pest or weed control for 15 compounds.

Type in all cases: in vivo
Assay [1] relates to Alopecurus myosuroides (ALOMY). The assay can be described thus: Example B pre-emergence herbicidal activity, glasshouse pot test. The conditions noted are these: 312 h, rate 250 g/ha, evaluated after 13 days, scale 0-100, read-out: Pre-emergence activity ALOMY (100=total damage to plant; 0=no damage to plant). How it is done: (§1) Seeds of a variety of test species were sown in standard soil in pots. After cultivation for one day (pre-emergence) or after 8 days cultivation (post-emergence) under controlled conditions in a glasshouse (at 24/16° C., day/night; 14 hours light; 65% humidity), the plants were sprayed with an aqueous spray solution derived from the formulation of the technical active ingredient of formula I in acetone/water (50:50) solution containing 0.5% Tween 20 (polyoxyethelyene sorbitan monolaurate, CAS RN 9005-64-5). The test plants were then grown in a glasshouse under controlled conditions in a glasshouse (at 24/16° C., day/night; 14 hours light; 65% humidity) and watered twice daily. After 13 days for pre and post-emergence, the test was evaluated (100=total damage to plant; 0=no damage to plant). Setaria faberi (SETFA), Lolium perenne (LOLPE), Alopecurus myosuroides (ALOMY), Echinochloa crus-galli (ECHCG), and Avena fatua (AVEFA). Pre-Emergence Activity

The test system of assay [2] is Avena fatua (AVEFA). The description is as above. The conditions noted are these: 312 h, rate 250 g/ha, evaluated after 13 days, scale 0-100, read-out: Pre-emergence activity AVEFA (100=total damage to plant; 0=no damage to plant). How it is done: as §1
The test system of assay [3] is Echinochloa crus-galli (ECHCG). The description is as above. The conditions noted are these: 312 h, rate 250 g/ha, evaluated after 13 days, scale 0-100, read-out: Pre-emergence activity ECHCG (100=total damage to plant; 0=no damage to plant). As for the experimental part: as §1
The subject of assay [4] is Lolium perenne (LOLPE). The description is as above. The note with it: 312 h, rate 250 g/ha, evaluated after 13 days, scale 0-100, read-out: Pre-emergence activity LOLPE (100=total damage to plant; 0=no damage to plant). How it is done:
as §1

In assay [5] the test system is Alopecurus myosuroides (ALOMY). Kind of assay: Example B post-emergence herbicidal activity, glasshouse pot test. The note with it: 312 h, rate 250 g/ha, evaluated after 13 days, scale 0-100, read-out: Post-emergence activity ALOMY (100=total damage to plant; 0=no damage to plant). As for the experimental part:
as §1, with “Post-Emergence” for “Pre-Emergence”

In assay [6] the test system is Avena fatua (AVEFA). Described as above. The note with it: 312 h, rate 250 g/ha, evaluated after 13 days, scale 0-100, read-out: Post-emergence activity AVEFA (100=total damage to plant; 0=no damage to plant). How it is done:
as §1, with “Post-Emergence” for “Pre-Emergence”

The test system of assay [7] is Echinochloa crus-galli (ECHCG). The assay is described as above. The conditions noted are these: 312 h, rate 250 g/ha, evaluated after 13 days, scale 0-100, read-out: Post-emergence activity ECHCG (100=total damage to plant; 0=no damage to plant). As for the experimental part: as §1, with “Post-Emergence” for “Pre-Emergence”
The test system of assay [8] is Lolium perenne (LOLPE). Described as above. The note with it: 312 h, rate 250 g/ha, evaluated after 13 days, scale 0-100, read-out: Post-emergence activity LOLPE (100=total damage to plant; 0=no damage to plant). How it is done:
as §1, with “Post-Emergence” for “Pre-Emergence”

For the compound `CCc1ccc(-c2ccc(Cl)nc2Cl)cc1C1=C(O)CCCC1=O` [Compound T57], the pest or weed control at 250 g/ha in assay [1] turned out to be 0%; with Avena fatua (AVEFA) [2], 0%; in assay [3] it was 20%; in the assay on Lolium perenne (LOLPE) [4] it was 10%; in assay [5], 50%; with Avena fatua (AVEFA) [6], 40%. Moreover, the pest or weed control at 250 g/ha amounted to 80% in assay [7] and 60% with Lolium perenne (LOLPE) [8].

In the case of `CCc1ccc(-c2ccc(Cl)c(F)c2Cl)cc1C1C(=O)C(C)(C)CC(C)(C)C1=O` [Compound T63], the pest or weed control at 250 g/ha in assay [1] came to 20%; in the assay on Avena fatua (AVEFA) [2], 50%; in assay [3] it was 90%; in the assay with Lolium perenne (LOLPE) [4], 90%; in assay [5], 20%; in the assay with Avena fatua (AVEFA) [6], 40%. Moreover, the pest or weed control at 250 g/ha (in assay [7]; in the assay with Lolium perenne (LOLPE) [8]) was 80% each time.

Take `CCc1ccc(-c2ccc(Cl)c(C(F)(F)F)c2)cc1C1=C(O)C(C)(C)CC(C)(C)C1=O` [Compound T65]: the pest or weed control at 250 g/ha amounted to 10% in assay [1]; 20% with Avena fatua (AVEFA) [2]; 90% in assay [3]; 50% in the assay on Lolium perenne (LOLPE) [4]; 20% in assay [5]; 30% with Avena fatua (AVEFA) [6]. For the same compound, the results for the pest or weed control at 250 g/ha (in assay [7]; in the assay on Lolium perenne (LOLPE) [8]) were 80% and 50%, respectively.

Regarding `CCc1ccc(-c2ccc(Cl)cc2C)cc1C1=C(O)C(C)(C)CCC1=O` [Compound T4, 2-(4′-chloro-4-ethyl-2′-methylbiphen-3-yl)-4,4-dimethylcyclohexane-1,3-dione], the pest or weed control at 250 g/ha worked out at 20% in assay [1]; 0% in the assay with Avena fatua (AVEFA) [2]; 90% in assay [3]; 40% in the assay on Lolium perenne (LOLPE) [4]; 0% in assay [5]; 0% with Avena fatua (AVEFA) [6]. Besides, the pest or weed control at 250 g/ha in assay [7] is 100%; with Lolium perenne (LOLPE) [8], 50%.

In the case of `CCc1ccc(-c2ccc(Cl)cc2Cl)cc1C1=C(O)C(C)(C)CCC1=O` [Compound T18], the pest or weed control at 250 g/ha was 30% in assay [1]; 20% with Avena fatua (AVEFA) [2]; 90% in assay [3]; 80% in the assay with Lolium perenne (LOLPE) [4]; 30% in assay [5]; 40% in the assay with Avena fatua (AVEFA) [6]. Also, the results for the pest or weed control at 250 g/ha (in assay [7]; in the assay on Lolium perenne (LOLPE) [8]) were 90% and 80%, respectively.

As to `CCc1ccc(-c2ccc(Cl)cc2F)cc1C1=C(O)C(C)(C)CC(C)(C)C1=O` [Compound T60], the pest or weed control at 250 g/ha in assay [1] turned out to be 0%; in the assay with Avena fatua (AVEFA) [2], 30%; in assay [3], 90%; in the assay with Lolium perenne (LOLPE) [4], 80%; in assay [5], 10%; with Avena fatua (AVEFA) [6] it was 30%. Further, the results for the pest or weed control at 250 g/ha (in assay [7]; in the assay with Lolium perenne (LOLPE) [8]) were 100% and 80%, respectively.

For the compound `CCc1ccc(-c2ccc(Cl)c(Cl)c2F)cc1C1=C(O)C(C)(C)CCC1=O` [Compound T17], the pest or weed control at 250 g/ha in assay [1] worked out at 0%; in the assay on Avena fatua (AVEFA) [2], 0%; in assay [3], 80%; in the assay on Lolium perenne (LOLPE) [4], 0%; in assay [5], 0%; in the assay with Avena fatua (AVEFA) [6] it was 0%. For the same compound, the pest or weed control at 250 g/ha in assay [7] is 90%; in the assay on Lolium perenne (LOLPE) [8] it was 40%.

Regarding `CCc1ccc(-c2cc(Cl)c(Cl)cc2Cl)cc1C1=C(O)C(C)(C)CCC1=O` [Compound T20], the pest or weed control at 250 g/ha was 0% in assay [1]; 0% with Avena fatua (AVEFA) [2]; 90% in assay [3]; 50% in the assay on Lolium perenne (LOLPE) [4]; 0% in assay [5]; 40% in the assay on Avena fatua (AVEFA) [6]. The pest or weed control at 250 g/ha stood at 80% in assay [7] and 70% in the assay with Lolium perenne (LOLPE) [8].

On to `CCc1ccc(-c2ccc(Cl)c(F)c2F)cc1C1=C(O)C(C)(C)CCC1=O` [Compound T16], for which the pest or weed control at 250 g/ha turned out to be 30% in assay [1]; 20% in the assay with Avena fatua (AVEFA) [2]; 90% in assay [3]; 80% with Lolium perenne (LOLPE) [4]; 50% in assay [5]; 90% in the assay on Avena fatua (AVEFA) [6]. The pest or weed control at 250 g/ha turned out to be 100% in assay [7] and 90% with Lolium perenne (LOLPE) [8].

On to `CCc1ccc(-c2ccc(Cl)c(C(F)(F)F)c2F)cc1C1=C(O)CCCC1=O` [Compound T53], for which the pest or weed control at 250 g/ha was determined as 20% in assay [1]; 0% in the assay on Avena fatua (AVEFA) [2]; 40% in assay [3]; 40% in the assay with Lolium perenne (LOLPE) [4]; 40% in assay [5]; 80% in the assay on Avena fatua (AVEFA) [6]. For the same compound, the pest or weed control at 250 g/ha (in assay [7]; in the assay with Lolium perenne (LOLPE) [8]) was 100% in each case.

As for `CCc1ccc(-c2ccc(Cl)nc2)cc1C1=C(O)C(C)(C)CCC1=O` [Compound T11], the pest or weed control at 250 g/ha came to 0% in assay [1]; 0% with Avena fatua (AVEFA) [2]; 20% in assay [3]; 0% with Lolium perenne (LOLPE) [4]; 60% in assay [5]; 60% in the assay with Avena fatua (AVEFA) [6]. Further, the pest or weed control at 250 g/ha amounted to 90% in assay [7] and 60% in the assay on Lolium perenne (LOLPE) [8].

Take `CCc1ccc(-c2ccc(Cl)s2)cc1C1=C(O)CCCC1=O` [Compound T55]: the pest or weed control at 250 g/ha in assay [1] is 20%; with Avena fatua (AVEFA) [2] it was 0%; in assay [3], 40%; with Lolium perenne (LOLPE) [4], 20%; in assay [5], 40%; in the assay with Avena fatua (AVEFA) [6], 10%. For the same compound, the pest or weed control at 250 g/ha in assay [7] was 100%; in the assay on Lolium perenne (LOLPE) [8], 60%.

In the case of `CCc1ccc(-c2ccc(Cl)nc2)cc1C1=C(O)CCCC1=O` [Compound T42], the pest or weed control at 250 g/ha turned out to be 0% in assay [1]; 0% in the assay with Avena fatua (AVEFA) [2]; 20% in assay [3]; 0% with Lolium perenne (LOLPE) [4]; 50% in assay [5]; 20% in the assay on Avena fatua (AVEFA) [6]. For the same compound, the pest or weed control at 250 g/ha in assay [7] came to 100%; with Lolium perenne (LOLPE) [8] it was 50%.

Take `CCc1ccc(-c2ccc(C(F)(F)F)cc2)cc1C1=C(O)CC(C)(C)CC1=O` [Compound T34]: the pest or weed control at 250 g/ha in assay [1] amounted to 20%; with Avena fatua (AVEFA) [2] it was 0%; in assay [3], 50%; with Lolium perenne (LOLPE) [4] it was 30%; in assay [5], 100%; in the assay with Avena fatua (AVEFA) [6], 100%. For the same compound, the pest or weed control at 250 g/ha (in assay [7]; in the assay on Lolium perenne (LOLPE) [8]) was 100% throughout.

For `CCc1ccc(-c2ccc(Cl)c(F)c2)cc1C1=C(O)C(C)(C)CCC1=O` [Compound T10], the pest or weed control at 250 g/ha in assay [1] stood at 0%; with Avena fatua (AVEFA) [2], 20%; in assay [3], 100%; in the assay with Lolium perenne (LOLPE) [4], 90%; in assay [5] it was 70%; in the assay with Avena fatua (AVEFA) [6], 90%. The pest or weed control at 250 g/ha was determined as 100% in assay [7] and 90% in the assay with Lolium perenne (LOLPE) [8].
